Laboratory results: ChEMBL document CHEMBL1201862, “PubChem BioAssay data set” (2004)
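Test compounds were applied to cells in 96-well plates for 48 hours at 5 doses. Here, GI50 denotes the concentration required for 50% inhibition of growth.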 Activity calls are given as the source filed them. Rule as the data show it: active = GI50 up to about 1.1 µM and inactive = higher.

Tests used:
Assay in all cases: inhibition of tumour cell growth, NCI panel, 48 h
A498 = system: A498
ACHN = system: ACHN
CCRF-CEM = system: CCRF-CEM
HCT-116 = system: HCT-116
HT-29 = system: HT-29
Hs-578T = system: Hs-578T
MCF7 = system: MCF7
MDA-MB-435 = system: MDA-MB-435
NCI-H226 = system: NCI-H226
NCI-H460 = system: NCI-H460
OVCAR-5 = system: OVCAR-5
PC-3 = system: PC-3
RPMI-8226 = system: RPMI-8226
SF-268 = system: SF-268
SK-MEL-5 = system: SK-MEL-5
SK-OV-3 = system: SK-OV-3
SN12C = system: SN12C
TK-10 = system: TK-10
UACC-62 = system: UACC-62
UO-31 = system: UO-31

Measured: GI50

COCOC1/C=C/CCCCC2=C(C)C=C(C1)O2 (stereo not given)
inactive: A498 > 100 µM | ACHN > 100 µM | CCRF-CEM > 100 µM | HCT-116 > 100 µM | HT-29 > 100 µM | Hs-578T > 100 µM | MCF7 > 100 µM | MDA-MB-435 > 100 µM | NCI-H226 > 100 µM | NCI-H460 > 100 µM | OVCAR-5 > 100 µM | PC-3 > 100 µM | RPMI-8226 > 100 µM | SF-268 > 100 µM | SK-MEL-5 > 100 µM | SK-OV-3 > 100 µM | SN12C > 100 µM | TK-10 > 100 µM | UACC-62 > 100 µM | UO-31 > 100 µM

Cc1ccc(S(=O)(=O)N2CCNCCN(S(=O)(=O)c3ccc(C)cc3)CCN(S(=O)(=O)c3ccc(C)cc3)CC2)cc1
inactive: A498 > 100 µM | ACHN > 100 µM | CCRF-CEM > 100 µM | HCT-116 > 100 µM | HT-29 > 100 µM | Hs-578T > 100 µM | MCF7 > 100 µM | MDA-MB-435 > 100 µM | NCI-H226 > 100 µM | NCI-H460 > 100 µM | OVCAR-5 > 100 µM | PC-3 > 100 µM | RPMI-8226 > 100 µM | SF-268 > 100 µM | SK-MEL-5 > 100 µM | SK-OV-3 > 100 µM | SN12C > 100 µM | TK-10 > 100 µM | UACC-62 > 100 µM | UO-31 > 100 µM
